Measurements from patent US10201157B2 (priority 2013, dated 2019).
Read-outs that look alike come from different tables or passages of the source.

Assays:
[1] = tested on: Pyricularia oryzae; assay type: cell-based; conditions: MTP, 7 days after inoculation
[2] = tested on: Microdochium nivale; test: B.2.3 microtest, activity against Microdochium nivale; assay type: cell-based; conditions: MTP, 7 days after inoculation
[3] = tested on: Rhizoctonia solani; test: B.2.4 microtest, activity against Rhizoctonia solani; assay type: cell-based; conditions: MTP, 7 days after inoculation
[4] = tested on: root-knot nematodes (Meloidogyne spp.); test: Test B.1.5 control of root-knot nematodes, drench application on cucumber plants; assay type: in vivo; conditions: four weeks after infestation
Procedure: For evaluating control of root-knot nematodes (Meloidogyne spp.) through exposure via drench application, the nematodes were introduced to treated cucumber plants.
The compounds or mixtures were dissolved in acetone at different concentrations. The compounds or mixtures were formulated using a solution containing 50% (v/v) acetone in water with 0.02 wt % Kinetic®. For experimental mixtures, identical volumes of both mixing partners were mixed together to achieve the desired respective concentrations.
Germinated cucumber seeds were planted in 1-oz black plastic cups (one seed per cup) with dry, sifted (#10 sieve) play sand. Treatments were applied as a drench in 7 ml solution to each cup which were held in a fume hood for 1 hour to allow acetone to evaporate. The cups were moved to an environmental chamber (25±2° C., 24 L) and watered daily for the duration of the test. Each cup was a replicate and replication was 5×. At the cucumber's cotyledon stage, each cup was infested with 500 root-knot nematode juveniles (J2s) in 1 ml distilled water.
Four weeks after infestation, cucumber roots were washed off and galls and egg masses were counted. Control was calculated as the reduction in galls or egg masses relative to the untreated control. Mean percent control was calculated for each treatment.

[5] = tested on: western corn rootworm (Diabrotica virgifera virgifera); test: Test B.1.2 control of western corn rootworm, maximum exposure to treated soil; assay type: in vivo; conditions: mortality 3 DAI
Excerpt: For evaluating control of western corn rootworm (Diabrotica virgifera virgifera) through maximum exposure method, the insects were exposed to treated soil.
The compounds or mixtures were first dissolved in acetone, and then mixed with soil to obtain the desired different ppm concentrations (w/w) of compound/soil or mixture/soil. For experimental mixtures, identical volumes of both mixing partners were mixed together to achieve the desired respective concentrations. Treatments were applied in solution to sifted (#10 sieve) loamy sand in a plastic bag. Treatments were thoroughly incorporated by sealing and shaking each bag by hand and allowing the solution to soak through the soil mass for at least 10 minutes. Bags were then unsealed and kept open in a fume hood overnight to evaporate the solvent from the soil.
One day after treatment (DAT) water for moisture and water-soaked millet seed as a food source were added to each bag and incorporated thoroughly. About 11 cm^3 of the millet and soil mixture was dispensed into a 1-oz. plastic cup. Each cup was infested with 10 western corn rootworm second-instar larvae and covered. Each cup was a replicate and replication was 3×. The test was maintained in an incubator at 26±1° C. in the dark. Mortality (dead+moribund insects) was evaluated 3 days after infestation (DAI) and mean percent mortality was calculated relative to the untreated control.

[6] = tested on: wireworm (Melanotus communis); test: Test B.1.1 control of wireworm, direct contact (dip) method; assay type: in vivo; conditions: mortality 3 DAT
Procedure: For evaluating control of wireworm (Melanotus communis) through direct contact method, the individual insects were dipped directly into compound solution.
The compounds or mixtures were dissolved in acetone at different concentrations. The compounds or mixtures were formulated using a solution containing 50% (v/v) acetone in water with 0.02 wt % Kinetic®.
For the experimental mixtures, identical volumes of both mixing partners were mixed together to achieve the desired respective concentrations. Wireworms were dipped directly into solution for three seconds and then allowed to air dry on filter paper.
About 11 cm^3 of water-moistened loamy sand was dispensed into each 16-cm^2 cell of a 32-cell rearing tray. One treated wireworm larva was infested into each cell along with two germinating wheat seeds. Cells were then covered with adhesive bio-assay tray lids. Each cell was a replicate and replication was 10×. After infestation, the test was maintained in an incubator at 26±1° C. in the dark. Mortality (dead+moribund insects) was evaluated 3 days after treatment (DAT) and mean percent mortality was calculated relative to the untreated control.

[7] = tested on: Alternaria solani; test: B.2.2 microtest, activity against early blight; assay type: cell-based; conditions: MTP, 7 days after inoculation
[8] = tested on: seedcorn maggot (Della platura); test: Test B.1.4 control of seedcorn maggot, maximum exposure to treated soil; assay type: in vivo; conditions: mortality 2 DAT
Excerpt: For evaluating control of seedcorn maggot (Della platura) through maximum exposure, the insects were exposed to treated soil.
The compounds or mixtures were first dissolved in acetone, and then mixed with soil to obtain the desired different ppm concentrations (w/w) of compound/soil or mixture/soil. For experimental mixtures, identical volumes of both mixing partners were mixed together to achieve the desired respective concentrations. Treatments were applied in solution to dry, sifted (#10 sieve) play sand in a glass jar. Treatments were thoroughly incorporated by capping and shaking each jar by hand and allowing the solution to soak through the sand mass for at least 10 minutes. The jars were then uncapped and the sand was kept in a fume hood for 4 hours to evaporate the solvent.
After the sand was dry, 10 cm^3 of the treated sand was dispensed into a 1-oz. plastic cup with bone meal in the bottom as a food source. Each cup was moistened with 4 ml water, infested with five seedcorn maggot second-instar larvae, and covered. Each cup was a replicate and replication was 5×. The test was maintained in an incubator at 22±1° C. in the dark. Mortality (dead+moribund insects) was evaluated 2 days after treatment (DAT) and mean percent mortality was calculated relative to the untreated control.

[9] = tested on: black cutworm (Agrotis ipsilon); test: Test B.1.3 control of black cutworm, direct contact (dip) method; assay type: in vivo; conditions: for Average Control % 1 DAT: mortality 1 DAT; for Average Control % 5 DAT: mortality 5 DAT
Procedure: For evaluating control of black cutworm (Agrotis ipsilon) through direct contact method, the individual insects were dipped directly into compound solution.
The compounds or mixtures were dissolved in acetone at different concentrations. The compounds or mixtures were formulated using a solution containing 50% (v/v) acetone in water with 0.02 wt % Kinetic®. For experimental mixtures, identical volumes of both mixing partners were mixed together to achieve the desired respective concentrations. Second-instar black cutworms were dipped directly into solution for three seconds and then allowed to air dry on filter paper. One treated black cutworm larva was infested into each 16-cm^2 cell of a 32-cell rearing tray along with the excised shoot of a corn plant and a moistened cotton wick. Cells were then covered with adhesive bio-assay tray lids. Each cell was a replicate and replication was 16×. After infestation, the test was maintained in an incubator at 25.5±1° C. and a 14L:10D light cycle. Mortality (dead+moribund insects) was evaluated 1 and 5 days after treatment (DAT) and mean percent mortality was calculated relative to the untreated control.

Fc1ccc([C@]2(Cn3cncn3)O[C@H]2c2ccccc2Cl)cc1 (racemic) [Epoxiconazol, Epoxiconazole]
Observed efficacy ([1]; 0.063 ppm): 1
Observed efficacy ([1]; 0.25 ppm): 28
Observed efficacy ([2]; 0.004 ppm): 8
Observed efficacy ([2]; 0.016 ppm): 29
Observed efficacy ([3]; 0.001 ppm): 0
Observed efficacy ([3]; 0.004 ppm): 0
Observed efficacy ([3]; 0.016 ppm): 24

CN(C(=O)c1ccccc1)c1cccc(C(=O)Nc2c(Br)cc(C(F)(C(F)(F)F)C(F)(F)F)cc2C(F)(F)F)c1F [Carboxamide compound of formula I]
Observed efficacy ([1]; 0.063 ppm): 2
Observed efficacy ([1]; 1 ppm): 12
Observed efficacy ([1]; 4 ppm): 15
Observed efficacy ([1]; 16 ppm): 4
Average Egg Mass Control % ([4]; 0.3 mg compound/plant): −21%
Average Gall Control % ([4]; 0.3 mg compound/plant): 35%
Average Control % ([5]; 0.01 ppm compound/soil): 30%
Average Control % ([6]; 3 ppm): 33%
Observed efficacy ([7]; 1 ppm): 0
Observed efficacy ([7]; 4 ppm): 0
Observed efficacy ([7]; 16 ppm): 0
Observed efficacy ([7]; 63 ppm): 0
Average Control % ([8]; 0.06 ppm compound/soil): 21%
Observed efficacy ([2]; 4 ppm): 13
Observed efficacy ([2]; 16 ppm): 15
Observed efficacy ([2]; 63 ppm): 4
Observed efficacy ([3]; 1 ppm): 0
Observed efficacy ([3]; 4 ppm): 0
Observed efficacy ([3]; 16 ppm): 0
Average Control % 1 DAT ([9]; 3 ppm): 38%
Average Control % 5 DAT ([9]; 3 ppm): 44%

CN/C(=N\[N+](=O)[O-])NCc1cnc(Cl)s1 [Clothianidin]
Average Control % ([5]; 0.1 ppm compound/soil): 33%

CNC(=O)c1cc(C#N)cc(C)c1NC(=O)c1cc(Br)nn1-c1ncccc1Cl [Cyantraniliprole, cyantraniliprole]
Average Control % ([5]; 3.1 ppm compound/soil): 23%
Average Control % ([6]; 225 ppm): 22%
Average Control % ([8]; 10 ppm compound/soil): 64%

N#Cc1nn(-c2c(Cl)cc(C(F)(F)F)cc2Cl)c(N)c1[S+]([O-])C(F)(F)F (centres unmarked) [Fipronil]
Average Control % ([5]; 0.03 ppm compound/soil): 27%
Average Control % ([6]; 30 ppm): 22%
Average Control % 1 DAT ([9]; 300 ppm): 13%
Average Control % 5 DAT ([9]; 300 ppm): 31%

Cn1cc(C(=O)Nc2ccccc2-c2cc(F)c(F)c(F)c2)c(C(F)F)n1 [Fluxapyroxad]
Observed efficacy ([2]; 0.004 ppm): 0
Observed efficacy ([2]; 0.063 ppm): 0

O=[N+]([O-])NC1=NCCN1Cc1ccc(Cl)nc1 [Imidacloprid]
Average Control % ([5]; 0.13 ppm compound/soil): 17%
Average Control % ([8]; 3 ppm compound/soil): 18%

COC(=O)N(OC)c1ccccc1COc1ccn(-c2ccc(Cl)cc2)n1 [Pyraclostrobin]
Observed efficacy ([7]; 0.016 ppm): 0
Observed efficacy ([7]; 0.063 ppm): 12
Observed efficacy ([2]; 0.016 ppm): 46

N#C/N=C1\SCCN1Cc1ccc(Cl)nc1 [Thiacloprid]
Average Control % ([5]; 0.2 ppm compound/soil): 37%

CN1COCN(Cc2cnc(Cl)s2)/C1=N\[N+](=O)[O-] [Thiamethoxam]
Average Control % ([6]; 25 ppm): 11%

CC1(C)CCC(=Cc2ccc(Cl)cc2)C1(O)Cn1cncn1 (centres unmarked) [Triticonazol, Triticonazole]
Observed efficacy ([7]; 0.25 ppm): 0
Observed efficacy ([7]; 1 ppm): 23
Observed efficacy ([3]; 0.25 ppm): 41

Abamectin
Average Egg Mass Control % ([4]; 0.008 mg compound/plant): 17%
Average Gall Control % ([4]; 0.008 mg compound/plant): 24%
Average Egg Mass Control % ([4]; 0.017 mg compound/plant): 39%
Average Gall Control % ([4]; 0.017 mg compound/plant): 40%

emamectin
Average Control % ([6]; 800 ppm): 11%
